One may read the IC50 as the concentration needed to halve the response being measured. Low values mean higher potency, high ones lower potency.

Each structure is given as a SMILES string.

H1047R PIK3CA enzyme, sequence (P42336 whole entry H1047R): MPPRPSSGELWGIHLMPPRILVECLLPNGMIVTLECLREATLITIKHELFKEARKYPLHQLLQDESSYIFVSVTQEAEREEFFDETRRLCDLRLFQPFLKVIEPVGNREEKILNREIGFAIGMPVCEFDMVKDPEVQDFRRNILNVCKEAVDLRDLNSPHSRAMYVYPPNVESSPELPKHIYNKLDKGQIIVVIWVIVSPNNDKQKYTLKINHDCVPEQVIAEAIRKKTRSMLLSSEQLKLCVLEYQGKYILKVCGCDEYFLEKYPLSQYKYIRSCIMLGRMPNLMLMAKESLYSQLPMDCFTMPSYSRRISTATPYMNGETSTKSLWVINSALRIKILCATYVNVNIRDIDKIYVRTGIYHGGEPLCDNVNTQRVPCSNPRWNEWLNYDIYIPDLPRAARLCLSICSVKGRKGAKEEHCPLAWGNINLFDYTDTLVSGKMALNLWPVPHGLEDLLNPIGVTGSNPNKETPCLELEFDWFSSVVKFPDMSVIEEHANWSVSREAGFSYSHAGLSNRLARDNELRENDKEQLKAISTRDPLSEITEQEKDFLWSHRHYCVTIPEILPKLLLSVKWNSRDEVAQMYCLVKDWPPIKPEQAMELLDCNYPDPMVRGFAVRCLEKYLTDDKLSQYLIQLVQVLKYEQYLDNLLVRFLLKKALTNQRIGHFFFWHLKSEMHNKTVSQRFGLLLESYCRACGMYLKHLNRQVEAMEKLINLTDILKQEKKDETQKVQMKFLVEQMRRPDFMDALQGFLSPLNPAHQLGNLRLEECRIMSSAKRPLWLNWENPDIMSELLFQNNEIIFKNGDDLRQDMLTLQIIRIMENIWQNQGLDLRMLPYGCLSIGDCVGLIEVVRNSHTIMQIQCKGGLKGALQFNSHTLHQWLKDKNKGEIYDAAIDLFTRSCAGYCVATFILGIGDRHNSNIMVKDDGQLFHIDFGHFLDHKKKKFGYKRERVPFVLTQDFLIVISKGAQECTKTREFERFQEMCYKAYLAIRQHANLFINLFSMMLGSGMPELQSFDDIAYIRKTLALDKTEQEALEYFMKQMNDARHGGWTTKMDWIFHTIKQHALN
H1047R PIK3CA enzyme, sequence (P27986 whole entry partner): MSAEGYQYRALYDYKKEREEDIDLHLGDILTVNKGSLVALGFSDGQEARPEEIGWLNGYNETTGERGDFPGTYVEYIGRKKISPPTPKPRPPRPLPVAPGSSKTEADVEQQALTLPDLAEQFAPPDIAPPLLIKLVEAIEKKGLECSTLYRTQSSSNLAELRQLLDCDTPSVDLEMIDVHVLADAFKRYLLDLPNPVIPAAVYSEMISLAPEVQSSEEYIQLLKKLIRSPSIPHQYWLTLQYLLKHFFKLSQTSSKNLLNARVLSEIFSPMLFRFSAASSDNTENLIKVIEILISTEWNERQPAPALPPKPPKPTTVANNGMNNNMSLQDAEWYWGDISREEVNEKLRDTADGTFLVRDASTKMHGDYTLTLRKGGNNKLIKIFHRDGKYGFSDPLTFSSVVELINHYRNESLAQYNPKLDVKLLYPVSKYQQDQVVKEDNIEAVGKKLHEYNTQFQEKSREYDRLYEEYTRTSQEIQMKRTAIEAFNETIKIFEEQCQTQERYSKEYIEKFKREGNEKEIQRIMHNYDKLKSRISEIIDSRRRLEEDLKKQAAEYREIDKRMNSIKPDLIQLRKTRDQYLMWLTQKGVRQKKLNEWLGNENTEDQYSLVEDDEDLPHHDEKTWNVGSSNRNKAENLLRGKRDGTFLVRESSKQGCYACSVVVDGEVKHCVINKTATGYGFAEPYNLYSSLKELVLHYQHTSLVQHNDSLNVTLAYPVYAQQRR

The assay concerns the target H1047R PIK3CA enzyme (Homo sapiens, UniProt P42336, H1047R). In words: ADP-Glo Biochemical PIK3CA Kinase Assay.
As to `CC1(Cc2cc(NC(=O)N3C[C@@](O)(C(F)(F)F)c4cc(F)ccc43)c3c(c2)C(=O)N[C@H]3c2cc(F)ccc2Cl)COC1` (single isomer, unassigned) [Compound I-2660], the concentration for half-maximal inhibition (IC50) lay in the range of 10 to 100 µM.

In the case of `Cc1nccn1-c1cc(NC(=O)N2C[C@](O)(C(F)(F)F)c3cc(F)ccc32)c2c(c1)C(=O)N[C@@H]2c1cc(F)ccc1Cl` (single isomer, unassigned) [Compound I-2662], the IC50 fell in the range of 1 to 10 µM.

Turning to `Cc1nccn1-c1cc(NC(=O)N2C[C@@](O)(C(F)(F)F)c3cc(F)ccc32)c2c(c1)C(=O)N[C@H]2c1cc(F)ccc1Cl` (single isomer, unassigned) [Compound I-2663], the IC50 is 1 to 10 µM.

`Cc1nccn1-c1cc(NC(=O)N2C[C@](O)(C(F)(F)F)c3cc(F)ccc32)c2c(c1)C(=O)N[C@H]2c1cc(F)ccc1Cl` (single isomer, unassigned) [Compound I-2664] returned a half-maximal inhibitory concentration (IC50) of 1 to 10 µM.

As to `O=C1N[C@H](c2cc(F)ccc2Cl)c2c(NC(=O)N3C[C@](O)(C(F)(F)F)c4cc(F)ccc43)cc(N3CCCC3=O)cc21` (single isomer, unassigned) [Compound I-2666], the IC50 was in the range of 1 to 10 µM.

For `O=C1N[C@@H](c2cc(F)ccc2Cl)c2c(NC(=O)N3C[C@@](O)(C(F)(F)F)c4cc(F)ccc43)cc(N3CCCC3=O)cc21` (single isomer, unassigned) [Compound I-2667], the concentration for half-maximal inhibition (IC50) is 1 to 10 µM.

Compound `O=C1N[C@@H](c2cc(F)ccc2Cl)c2c(NC(=O)N3C[C@](O)(C(F)(F)F)c4cc(F)ccc43)cc(N3CCCC3=O)cc21` (single isomer, unassigned) [Compound I-2668] came in with a half-maximal inhibitory concentration (IC50) of 10 to 100 µM.

Compound `N#Cc1cnn(Cc2cc(NC(=O)N3C[C@@](O)(C(F)(F)F)c4cc(F)ccc43)c3c(c2)C(=O)N[C@@H]3c2cc(F)ccc2Cl)c1` (single isomer, unassigned) [Compound I-2670] yielded an IC50 of 0.5 to 1 µM.

`N#Cc1cnn(Cc2cc(NC(=O)N3C[C@](O)(C(F)(F)F)c4cc(F)ccc43)c3c(c2)C(=O)N[C@H]3c2cc(F)ccc2Cl)c1` (single isomer, unassigned) [Compound I-2671] returned an IC50 of 0.5 to 1 µM.

Regarding `N#Cc1cnn(Cc2cc(NC(=O)N3C[C@@](O)(C(F)(F)F)c4cc(F)ccc43)c3c(c2)C(=O)N[C@H]3c2cc(F)ccc2Cl)c1` (single isomer, unassigned) [Compound I-2672], the IC50 fell in the range of 10 to 100 µM.

Compound `O=C1N[C@H](c2cc(F)ccc2Cl)c2c(NC(=O)N3C[C@](O)(C(F)(F)F)c4cc(F)ccc43)cc(N3CCOC3=O)cc21` (single isomer, unassigned) [Compound I-2674] came in with a concentration for half-maximal inhibition (IC50) of 1 to 10 µM.

As to `O=C1N[C@@H](c2cc(F)ccc2Cl)c2c(NC(=O)N3C[C@@](O)(C(F)(F)F)c4cc(F)ccc43)cc(N3CCOC3=O)cc21` (single isomer, unassigned) [Compound I-2675], the IC50 is 1 to 10 µM.

Compound `O=C1N[C@@H](c2cc(F)ccc2Cl)c2c(NC(=O)N3C[C@](O)(C(F)(F)F)c4cc(F)ccc43)cc(N3CCOC3=O)cc21` (single isomer, unassigned) [Compound I-2676] gave an IC50 of 10 to 100 µM.

The compound `CNc1cc(NC(=O)N2C[C@](O)(C(F)F)c3cc(F)ccc32)c2c(c1)C(=O)N[C@H]2c1cc(F)ccc1Cl` (single isomer, unassigned) [Compound I-2678] came in with a 50% inhibitory concentration (IC50) of 1 to 10 µM.

In the case of `CNc1cc(NC(=O)N2C[C@@](O)(C(F)F)c3cc(F)ccc32)c2c(c1)C(=O)N[C@@H]2c1cc(F)ccc1Cl` (single isomer, unassigned) [Compound I-2679], the IC50 was 10 to 100 µM.

Consider `CNc1cc(NC(=O)N2C[C@@](O)(C(F)F)c3cc(F)ccc32)c2c(c1)C(=O)N[C@H]2c1cc(F)ccc1Cl` (single isomer, unassigned) [Compound I-2680], for which the IC50 was in the range of 10 to 100 µM.

In turn, `[2H][C@@]1(c2cc(F)ccc2Cl)NC(=O)c2cccc(NC(=O)N3C[C@](O)(C(F)(F)F)c4cc(F)ccc43)c21` (single isomer, unassigned) [Compound I-2681] displayed a concentration for half-maximal inhibition (IC50) of 1 to 10 µM.

In turn, `[2H][C@]1(c2cc(F)ccc2Cl)NC(=O)c2cccc(NC(=O)N3C[C@@](O)(C(F)(F)F)c4cc(F)ccc43)c21` (single isomer, unassigned) [Compound I-2683] returned an IC50 of 1 to 10 µM.

Compound `[2H][C@]1(c2cc(F)ccc2Cl)NC(=O)c2cccc(NC(=O)N3C[C@](O)(C(F)(F)F)c4cc(F)ccc43)c21` (single isomer, unassigned) [Compound I-2684] yielded an IC50 of 10 to 100 µM.

Compound `O=C1N[C@@H](c2ccccc2Cl)c2c(NC(=O)N3C[C@@](O)(C(F)(F)F)c4cc(F)ccc43)cccc21` (single isomer, unassigned) [Compound I-2685] had an IC50 of 10 to 100 µM.

`O=C1N[C@@H](c2ccccc2Cl)c2c(NC(=O)N3C[C@](O)(C(F)(F)F)c4cc(F)ccc43)cccc21` (single isomer, unassigned) [Compound I-2686] returned a concentration for half-maximal inhibition (IC50) of 10 to 100 µM.

In turn, `O=C1N[C@H](c2ccccc2Cl)c2c(NC(=O)N3C[C@](O)(C(F)(F)F)c4cc(F)ccc43)cccc21` (single isomer, unassigned) [Compound I-2687] yielded a half-inhibitory concentration (IC50) of 1 to 10 µM.

On to `CN(C)c1cc(NC(=O)N2C[C@@](O)(C(F)(F)F)c3cc(F)ccc32)c2c(n1)C(=O)N[C@H]2c1cc(F)ccc1Cl` (single isomer, unassigned) [Compound I-2691], for which the IC50 was in the range of 1 to 10 µM.

For the compound `CN(C)c1cc(NC(=O)N2C[C@](O)(C(F)(F)F)c3cc(F)ccc32)c2c(n1)C(=O)N[C@@H]2c1cc(F)ccc1Cl` (single isomer, unassigned) [Compound I-2692], the half-maximal inhibitory concentration (IC50) is 10 to 100 µM.

With `CN(C)c1cc(NC(=O)N2C[C@@](O)(C(F)(F)F)c3cc(F)ccc32)c2c(n1)C(=O)N[C@@H]2c1cc(F)ccc1Cl` (single isomer, unassigned) [Compound I-2693], the IC50 is 10 to 100 µM.

Consider `NCc1cc(NC(=O)N2C[C@](O)(C(F)F)c3cc(F)ccc32)c2c(c1)C(=O)N[C@@H]2c1cc(F)ccc1Cl` (single isomer, unassigned) [Compound I-2695], for which the half-inhibitory concentration (IC50) fell in the range of 1 to 10 µM.

Take `NCc1cc(NC(=O)N2C[C@@](O)(C(F)F)c3cc(F)ccc32)c2c(c1)C(=O)N[C@H]2c1cc(F)ccc1Cl` (single isomer, unassigned) [Compound I-2696]: the concentration for half-maximal inhibition (IC50) is 1 to 10 µM.

As for `NCc1cc(NC(=O)N2C[C@](O)(C(F)F)c3cc(F)ccc32)c2c(c1)C(=O)N[C@H]2c1cc(F)ccc1Cl` (single isomer, unassigned) [Compound I-2697], the half-inhibitory concentration (IC50) lay in the range of 1 to 10 µM.

In the case of `O=C1N[C@H](c2cc(F)ccc2Cl)c2c(NC(=O)N3C[C@](O)(C(F)(F)F)c4cc(F)ccc43)ccnc21` (single isomer, unassigned) [Compound I-2699], the IC50 is 1 to 10 µM.

Compound `O=C1N[C@@H](c2cc(F)ccc2Cl)c2c(NC(=O)N3C[C@@](O)(C(F)(F)F)c4cc(F)ccc43)ccnc21` (single isomer, unassigned) [Compound I-2700] displayed a half-inhibitory concentration (IC50) of 1 to 10 µM.

The compound `O=C1N[C@@H](c2cc(F)ccc2Cl)c2c(NC(=O)N3C[C@](O)(C(F)(F)F)c4cc(F)ccc43)ccnc21` (single isomer, unassigned) [Compound I-2701] registered an IC50 of 1 to 10 µM.

Regarding `O=C1N[C@H](c2cc(F)ccc2Cl)c2c(NC(=O)N3C[C@](O)(C(F)(F)F)c4cc(F)ccc43)cc(Cl)nc21` (single isomer, unassigned) [Compound I-2702], the IC50 was in the range of 1 to 10 µM.

`O=C1N[C@@H](c2cc(F)ccc2Cl)c2c(NC(=O)N3C[C@@](O)(C(F)(F)F)c4cc(F)ccc43)cc(Cl)nc21` (single isomer, unassigned) [Compound I-2705] returned an IC50 of 1 to 10 µM.

As to `O=C(Nc1cc(-c2ccncc2F)cc2c1[C@H](c1cc(F)ccc1Cl)NC2=O)c1cc(F)cc(C(F)(F)F)c1` (stereo in doubt) [Compound I-987], the IC50 is 1 to 10 µM.

`O=C1NCc2c(NC(=O)N3CCCC[C@H]3Cc3ccccc3)cccc21` (stereo in doubt) [Compound I-988] had an IC50 of 10 to 100 µM.

As to `O=C1NCc2c(NC(=O)N3CCCC[C@@H]3Cc3ccccc3)cccc21` (stereo in doubt) [Compound I-989], the IC50 fell in the range of 10 to 100 µM.

As to `Cn1ccc(-c2cc(NC(=O)c3cc(F)cc(C(F)(F)F)c3)c3c(c2)C(=O)N[C@H]3c2cc(F)ccc2Cl)cc1=O` (stereo in doubt) [Compound I-1001], the half-inhibitory concentration (IC50) lay within 1 to 10 µM.

`Nc1ncc(-c2cc(NC(=O)c3cc(F)cc(C(F)(F)F)c3)c3c(c2)C(=O)N[C@H]3c2cc(F)ccc2Cl)cn1` (stereo in doubt) [Compound I-1004] returned a half-inhibitory concentration (IC50) of 1 to 10 µM.

`COc1cccc(-c2cc(NC(=O)c3cc(F)cc(C(F)(F)F)c3)c3c(c2)C(=O)N[C@@H]3c2cc(F)ccc2Cl)n1` (stereo in doubt) [Compound I-1007] registered an IC50 of 1 to 10 µM.

With `O=C(Nc1cc(-c2cccnc2)cc2c1[C@H](c1cc(F)ccc1Cl)NC2=O)c1cc(F)cc(C(F)(F)F)c1` (stereo in doubt) [Compound I-1008], the concentration for half-maximal inhibition (IC50) lay in the range of 1 to 10 µM.

The compound `Cc1cnccc1-c1cc(NC(=O)c2cc(F)cc(C(F)(F)F)c2)c2c(c1)C(=O)N[C@@H]2c1cc(F)ccc1Cl` (stereo in doubt) [Compound I-1011] showed a 50% inhibitory concentration (IC50) of 1 to 10 µM.

The compound `O=C(Nc1cc(-c2ccc3ncnn3c2)cc2c1[C@@H](c1cc(F)ccc1C(F)F)NC2=O)c1cc(F)cc(C(F)(F)F)c1` (stereo in doubt) [Compound I-1055] registered an IC50 of 1 to 10 µM.

The compound `O=C(Nc1cc(-c2ccc3ncnn3c2)cc2c1[C@@H](c1cc(F)cc(F)c1Cl)NC2=O)c1cc(F)cc(C(F)(F)F)c1` (stereo in doubt) [Compound I-1063] showed an IC50 of 10 to 100 µM.

For `O=C(Nc1cc(-c2ccc3ncnn3c2)cc2c1[C@H](c1cc(F)ccc1Cl)NC2=O)c1ccc(F)c(OC(F)(F)F)c1` (stereo in doubt) [Compound I-1107], the half-maximal inhibitory concentration (IC50) is 0.1 to 0.5 µM.

Compound `O=C(Nc1cc(-c2ccc3ncnn3c2)cc2c1[C@@H](c1cc(F)ccc1Cl)NC2=O)c1ccc(F)c(OC(F)(F)F)c1` (stereo in doubt) [Compound I-1108] yielded an IC50 of 1 to 10 µM.

Consider `O=C(Nc1cc(-c2ccc3ncnn3c2)cc2c1[C@@H](c1cc(F)ccc1Cl)NC2=O)c1cccc(C(F)(F)F)c1` (stereo in doubt) [Compound I-1116], for which the IC50 is 10 to 100 µM.

The values are drawn from patent US12581252B2, “Substituted pyrrolo[3,4-b]pyridines as PI3K-α inhibitors” (Relay Therapeutics, Inc., priority 2020, dated 2026).
